Assay: molar heat capacity at constant pressure; xn = mol fraction of the nth substance listed
Conditions: 101 kPa, Liquid

CNCCO [2-(methylamino)ethanol] + O
molar heat capacity at constant pressure [J/K/mol]
Conditions	x1 = 0.1	x1 = 0.1998	x1 = 0.3003	x1 = 0.399	x1 = 0.5002	x1 = 0.6061	x1 = 0.6987	x1 = 0.8003	x1 = 0.9004	x1 = 1
303.15 K	96	108	119	129	139	151	160	172	182	194
308.15 K	98	111	122	132	143	155	165	176	187	199
313.15 K	99	113	124	135	146	157	167	178	189	200
318.15 K	100	114	126	137	148	160	170	180	190	202
323.15 K	101	116	128	139	150	162	172	183	192	203
328.15 K	103	118	131	142	153	165	175	185	195	205
333.15 K	105	121	134	145	157	168	178	188	197	206
338.15 K	107	124	138	149	161	172	182	191	199	207
343.15 K	110	127	141	153	164	176	185	194	201	208
348.15 K	114	132	146	158	169	181	190	198	205	210
353.15 K	119	138	152	163	174	186	195	203	208	212

CN(C)CCO [2-(N,N-dimethylamino)ethanol] + O
molar heat capacity at constant pressure [J/K/mol]
Conditions	x1 = 0.0997	x1 = 0.1962	x1 = 0.3003	x1 = 0.3984	x1 = 0.4983	x1 = 0.6008	x1 = 0.698	x1 = 0.7981	x1 = 0.8938	x1 = 1
303.15 K	103	118	132	144	156	168	179	191	202	213
308.15 K	104	119	134	146	158	170	181	193	205	215
313.15 K	105	121	136	149	161	173	185	196	208	217
318.15 K	105	123	139	152	164	177	188	199	210	219
323.15 K	107	125	141	155	168	180	191	203	213	221
328.15 K	108	127	144	158	171	184	195	206	215	222
333.15 K	109	129	147	161	175	187	199	209	217	223
338.15 K	112	132	150	165	179	192	203	213	220	223
343.15 K	114	136	155	170	184	196	208	218	223	223
348.15 K	118	140	160	176	190	203	214	223	225	224
353.15 K	123	146	166	184	198	210	221	229	228	226

From the NIST ThermoML archive (doi:10.1021/je0604232)
